From patent US9481648B2, “Kinase inhibitors” (Respivert Limited, priority 2013, dated 2016)
Like-named read-outs stand apart in the source and are kept apart here.

Key:
[1] = Plasma pharmacokinetics and total colon tissue distribution in mice, single oral administration; assay type: in vivo, mouse (male C57BL/6); details: male, C57BL/6, mouse, 5 mg/kg
Experimental: (§1) Studies were conducted by Sai Life Sciences (Hinjewadi, Pune, India) to investigate the plasma pharmacokinetics and total colon tissue distribution of compounds of the invention. In particular, pharmacokinetic studies were carried out in: • male C57BL/6 mice, following a single oral administration; and • male Wistar rats following a single intravenous or oral administration.

human hepatocytes = assay: Human hepatocyte stability test; assay type: in vitro ADME
Experimental: Assessment of certain in vitro ADME (absorption, distribution, metabolism, and excretion) parameters for certain compounds of the invention was conducted by BioFocus (Saffron Walden, UK).

[2] = tested on: β-catenin in d-U937 cells; assay: Accumulation of β catenin in d-U937 cells (assay m); assay type: cell-based, human
How it was run: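 U937 cells were differentiated with PMA (100 ng/mL) for 48–72 hr, then treated with compound or vehicle for 18 hr. After formaldehyde fixation, β-catenin was detected with a primary antibody and an HRP secondary using TMB (OD450–655). Signal was normalised to crystal violet cell staining (OD595).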

[3] = Plasma pharmacokinetics in rats, single intravenous or oral administration; assay type: in vivo, rat (male Wistar); details: rats; for Fpo: oral 5 mg/kg, vehicle C (Example 4) or B
Experimental: as §1

non-mutant kinases = assay type: binding; details: for KinomeScan Selectivity Score S(10): (number of non-mutant kinases with % Ctrl <10)/(number of non-mutant kinases tested); for KinomeScan Selectivity Score S(35): (number of non-mutant kinases with % Ctrl <35)/(number of non-mutant kinases tested); for number of individual kinase hits, S(1): non-mutant kinases with % Ctrl <1; for number of individual kinase hits, S(10): non-mutant kinases with % Ctrl <10; for number of individual kinase hits, S(35): non-mutant kinases with % Ctrl <35; for KinomeScan Selectivity Score S(1): (number of non-mutant kinases with % Ctrl <1)/(number of non-mutant kinases tested); for selectivity compared to the Reference Compound: as evidenced by lower selectivity scores
Experimental: These assays may be conducted by DiscoverX (formerly Ambit; San Diego, Calif.). The percentage inhibition produced by incubation with a test compound may be calculated relative to the non-inhibited control.

Syk = Syk (Homo sapiens (Human), UniProt P43405); assay: Syk enzyme inhibition (FRET, Z-LYTE); assay type: biochemical
How it was run: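 Syk or c-Src enzyme (3000 or 2000 ng/mL solutions) was preincubated 2 h at RT with compound solutions at 1, 0.1, 0.01 or 0.001 µg/mL. Z-LYTE FRET peptide (8 µM solution) and ATP (800 µM solution for c-Src, 60 µM for Syk) were then added for 1 h, followed by protease development for 1 h. Phosphorylation was read as the coumarin/fluorescein emission ratio.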

[4] = tested on: rat, Cynomolgus macaque or human hepatocytes; assay: Analysis of metabolites after incubation with hepatocytes; assay type: in vitro ADME; details: 10 μM
Experimental: Studies were conducted by BioFocus (Saffron Walden, UK) to determine the metabolic fate of the compound of Example 16 following incubation with rat, Cynomolgus macaque or human hepatocytes.
Separate incubations (n=3) of the compound of Example 16 (10 μM initial concentration) or DMSO control, were performed with cryopreserved hepatocytes from each species (0.5 million cell/mL) at 37° C. for 0, 60 and 90 minutes before termination of reactions and compound extraction with acetonitrile. Sample replicates were pooled prior to analysis.
Potential metabolites were identified using time-of-flight (TOF) and triple quadruple (TQ) mass spectrometers.

[5] = total colon, read-out: Median total colon concentration
[6] = male, Wistar, rat, plasma, intravenous 0.25 mg/kg

| SMILES | Fpo [3] [%] | KinomeScan Selectivity Score S(10) (non-mutant kinases; 50 nM) | KinomeScan Selectivity Score S(35) (non-mutant kinases; 50 nM) | number of individual kinase hits, S(1) (non-mutant kinases; 50 nM) | number of individual kinase hits, S(10) (non-mutant kinases; 50 nM) | number of individual kinase hits, S(35) (non-mutant kinases; 50 nM) | KinomeScan Selectivity Score S(1) (non-mutant kinases; 500 nM) | KinomeScan Selectivity Score S(10) (non-mutant kinases; 500 nM) | KinomeScan Selectivity Score S(35) (non-mutant kinases; 500 nM) | number of individual kinase hits, S(1) (non-mutant kinases; 500 nM) | number of individual kinase hits, S(10) (non-mutant kinases; 500 nM) | number of individual kinase hits, S(35) (non-mutant kinases; 500 nM) | selectivity compared to the Reference Compound (non-mutant kinases) | other results |
| --- | --- | --- | --- | --- | --- | --- | --- | --- | --- | --- | --- | --- | --- | --- |
| COCCOCCOCCNC(=O)c1cc(Nc2cc(Oc3ccc(NC(=O)Nc4cc(C(C)(C)C)cc(NS(C)(=O)=O)c4OC)c4ccccc34)ccn2)cc(OC)c1 [Example 3, 3-((4-((4-(3-(5-(tert-Butyl)-2-methoxy-3-(methylsulfonamido)phenyl)ureido)naphthalen-1-yl)oxy)pyridin-2-yl)amino)-5-methoxy-N-(2-(2-(2-methoxyethoxy)ethoxy)ethyl)benzamide] | 0.0 | 0.023 | 0.091 | 0 | 9 | 36 | 0.046 | 0.149 | 0.235 | 18 | 59 | 93 | substantially improved selectivities | concentration at 6 h ([1]; plasma, read-out: Median plasma concentration): 114 ng/mL; concentration at 1 h [1, 5]: 107 ng/g; concentration at 2 h [1, 5]: 274 ng/g; concentration at 4 h [1, 5]: 209 ng/g; concentration at 6 h [1, 5]: 255 ng/g; concentration at 8 h [1, 5]: 278 ng/g; concentration at 12 h [1, 5]: 232 ng/g; concentration at 24 h [1, 5]: 19.1 ng/g; Mean hepatic extraction ratio (human hepatocytes): 0.85; % β-catenin induction ([2]; test compound 1 μg/mL): 0%; % β-catenin induction ([2]; test compound 5 μg/mL): 4%; % β-catenin induction ([2]; test compound 10 μg/mL): 4%; AUC(0-inf) [3, 6]: 821 ng·h/mL; AUC(0-t) [3, 6]: 820 ng·h/mL; half-life [3, 6]: 12 min; C0 ([3]; male, Wistar, rat, plasma, intravenous 0.25 mg/kg in 5% DMSO-7.5% Solutol HS15-87.5% normal saline): 4380 ng/mL; Vd ([3]; male, Wistar, rat, plasma, intravenous 0.25 mg/kg, read-out: Vss): 0.1 L/kg; CI ([3]; intravenous 0.25 mg/kg): 5.1 mL/min/kg; IC50 (Syk): 0.692 µM |
| C#Cc1cc(Nc2nccc(Oc3ccc(NC(=O)Nc4cc(C(C)(C)C)cc(NS(C)(=O)=O)c4OC)c4ccccc34)n2)cc(C(=O)NCCOCCOCCOC)c1 [Example 16] | 0.0 | 0.023 | 0.068 | 0 | 9 | 27 | 0.038 | 0.129 | 0.197 | 15 | 51 | 78 | substantially improved selectivities | number of metabolites resulting from oxidation on the polyethylene glycol chain of the amide moiety ([4]; hepatocytes): 8; products connected to metabolism at the naphthalene moiety ([4]; hepatocytes): no products were noted; number of metabolites formed in hepatocytes ([4]; rat, Cynomolgus macaque or human hepatocytes, 0, 60 and 90 minutes): 9 |
